Reference: patent publication US8349870B2 (priority 2008, dated 2013)
Where two headings read alike, the source gives them in different places.

How the values were obtained:
Assay type in all cases: in vivo
[1] = system: Phytophthora infestans; conditions: tomato late blight, sprayed the day before inoculation
[2] = system: Phytophthora infestans; conditions: tomato late blight, sprayed 17 h after inoculation
[3] = system: Plasmopara viticola; test: Test A: grape downy mildew, spray after inoculation, visual disease rating (% disease control); conditions: 100 = 100% disease control, 0 = no control
Source text: General protocol for preparing test suspensions for Test A-C: The test compounds were first dissolved in acetone in an amount equal to 3% of the final volume and then suspended at the desired concentration (in ppm) in acetone and purified water (50/50 mix by volume) containing 250 ppm of the surfactant Trem® 014 (polyhydric alcohol esters). The resulting test suspensions were then used in Tests A-C. Spraying a 200 ppm test suspension to the point of run-off on the test plants was equivalent to a rate of 500 g/ha.
Grape seedlings were inoculated with a spore suspension of Plasmopara viticola (the causal agent of grape downy mildew) and incubated in a saturated atmosphere at 20° C. for 24 h. After a short drying period, the test suspension was sprayed to the point of run-off on the grape seedlings, which were then moved to a growth chamber at 20° C. for 5 days, after which time the grape seedling were placed back into a saturated atmosphere at 20° C. for 24 h. Upon removal, visual disease ratings were made.
Results for Tests A-C are given in Table A. In the table, a rating of 100 indicates 100% disease control and a rating of 0 indicates no disease control (relative to the controls). A dash (-) indicates no test results, “*” indicates compound was tested at 40 ppm and “**” indicates compound was tested at 10 ppm.

[4] = Cmpd No. unmarked, rate not stated in table (b1197 mentions a 200 ppm test suspension)

Molecule	Test B rating (% disease control) ([1]; "*" compound tested at 40 ppm) [%]	Test C rating (% disease control) ([2]; "*" compound tested at 40 ppm) [%]	Test A rating (% disease control) ([3]; "*" compound tested at 40 ppm) [%]	Test B rating (% disease control) [1, 4] [%]	Test C rating (% disease control) [2, 4] [%]	Test A rating (% disease control) [3, 4] [%]	other results
4-[4-(4,5-dihydro-5-phenyl-3-isoxazoly)-2-thiazolyl]-N-pentyl-1-piperidinecarboxamide [Example 4]	100	76	86				
4-[4-(4,5-dihydro-5-phenyl-3-isoxazolyl)-2-thiazolyl]-N-2-propen-1-yl]-1-piperidinecarbothioamide [Example 5]	99	73	83				
5-chloro-1-[4-[4-[4,5-dihydro-5-(2-fluorophenyl)-3-isoxazolyl]-2-thiazolyl]-1-piperidinyl-1-pentanone [Example 7]				100	71	98	
O=C(C(O)Cc1ccccc1)N1CCC(c2nc(C3=NOC(c4c(F)cccc4F)C3)cs2)CC1 (mixture of isomers) [compound 50]	87	0	0				
CC(C)C(O)C(=O)N1CCC(c2nc(C3=NOC(c4c(F)cccc4F)C3)cs2)CC1 (mixture of isomers) [compound 54]	100	99					
CC(C)C(O)C(=O)N1CCC(c2nc(C3=NOC(c4c(F)cccc4F)C3)cs2)CC1 (mixture of isomers) [compound 55]							Test B rating (% disease control) ([1]; "**" compound tested at 10 ppm): 100%; Test C rating (% disease control) ([2]; "**" compound tested at 10 ppm): 99%; Test A rating (% disease control) ([3]; "**" compound tested at 10 ppm): 10%
CC(C)CC(O)C(=O)N1CCC(c2nc(C3=NOC(c4c(F)cccc4F)C3)cs2)CC1 (mixture of isomers) [compound 56]	84	50	98				
CSC(=Nc1cc(C)ccc1C)N1CCC(c2nc(C3=NOC(c4ccccc4)C3)cs2)CC1 (stereo not drawn) [Example 1, methyl 4-[4-(4,5-dihydro-5-phenyl-3-isoxazolyl)-2-thiazolyl]-N-(2,5-dimethylphenyl)-1-piperidinecarboximidothioate]	97	53	96				
Cc1ccc(C)c(N=CN2CCC(c3nc(C4=NOC(c5ccccc5)C4)cs3)CC2)c1 (stereo not drawn) [Example 2, N-[[4-[4-(4,5-dihydro-5-phenyl-3-isoxazolyl)-2-thiazolyl]-1-piperidinyl]methylene]-2,5-dimethylbenzenamine]				88	0	17	
CC(CC(=O)N1CCC(c2nc(C3=NOC(c4ccccc4F)C3)cs2)CC1)C(F)(F)F (stereo not drawn) [Example 6, 1-[4-[4-[4,5-dihydro-5-(2-fluorophenyl)-3-isoxazolyl]-2-thiazolyl]-1-piperidinyl]-4,4,4-trifluoro-3-methyl-1-butanone]				33	0	0	
C#CCCC(=O)N1CCC(c2nc(C3=NOC(c4ccccc4F)C3)cs2)CC1 (stereo not drawn) [Example 8, 1-[4-[4-[4,5-dihydro-5-(2-fluorophenyl)-3-isoxazolyl]-2-thiazolyl]-1-piperidinyl]-4-pentyn-1-one]				40	0	46	
CN(C)C(=O)N1CCC(c2nc(C3=NOC(c4ccccc4)C3)cs2)CC1 (stereo not drawn) [compound 11]				0	0	0	
CCN(CC)C(=O)N1CCC(c2nc(C3=NOC(c4ccccc4)C3)cs2)CC1 (stereo not drawn) [compound 12]				40	0	8	
CCNC(=O)N1CCC(c2nc(C3=NOC(c4ccccc4)C3)cs2)CC1 (stereo not drawn) [compound 13]				99	0	57	
CCCNC(=O)N1CCC(c2nc(C3=NOC(c4ccccc4)C3)cs2)CC1 (stereo not drawn) [compound 14]				100	99	88	
CC(C)NC(=O)N1CCC(c2nc(C3=NOC(c4ccccc4)C3)cs2)CC1 (stereo not drawn) [compound 15]				100	91	86	
CC(C)(C)NC(=O)N1CCC(c2nc(C3=NOC(c4ccccc4)C3)cs2)CC1 (stereo not drawn) [compound 16]				100	95	86	
CCC(C)NC(=O)N1CCC(c2nc(C3=NOC(c4ccccc4)C3)cs2)CC1 (stereo not drawn) [compound 17]	100	95	86				

Molecule	Test B rating (% disease control) ([1]; "*" compound tested at 40 ppm) [%]	Test C rating (% disease control) ([2]; "*" compound tested at 40 ppm) [%]	Test A rating (% disease control) ([3]; "*" compound tested at 40 ppm) [%]	Test B rating (% disease control) [1, 4] [%]	Test C rating (% disease control) [2, 4] [%]	Test A rating (% disease control) [3, 4] [%]	other results
CCOC(=O)CNC(=O)N1CCC(c2nc(C3=NOC(c4ccccc4)C3)cs2)CC1 (stereo not drawn) [compound 18]	63	26	39				
O=C(NC1CCCC1)N1CCC(c2nc(C3=NOC(c4ccccc4)C3)cs2)CC1 (stereo not drawn) [compound 19]	100	63	67				
O=C(NCC1CCCCC1)N1CCC(c2nc(C3=NOC(c4ccccc4)C3)cs2)CC1 (stereo not drawn) [compound 20]	100	93	95				
Cc1ccc(C)c(N=CN2CCC(c3nc(C4=NOC(c5ccccc5)C4)cs3)CC2)c1.Cl (stereo not drawn) [compound 21]				95	0	0	
Cc1ccc(C)c(N=C(N)N2CCC(c3nc(C4=NOC(c5ccccc5)C4)cs3)CC2)c1 (stereo not drawn) [compound 23]							Test B rating (% disease control) ([1]; "**" compound tested at 10 ppm): 100%; Test C rating (% disease control) ([2]; "**" compound tested at 10 ppm): 33%; Test A rating (% disease control) ([3]; "**" compound tested at 10 ppm): 79%
Cc1ccc(C)c(N=C(N(C)C)N2CCC(c3nc(C4=NOC(c5ccccc5)C4)cs3)CC2)c1 (stereo not drawn) [compound 24]	97	39	79				
Cc1ccc(C)c(N=C(NO)N2CCC(c3nc(C4=NOC(c5c(F)cccc5F)C4)cs3)CC2)c1 (stereo not drawn) [compound 25]	100	99	100				
CSC(=Nc1cc(C)ccc1C)N1CCC(c2nc(C3=NOC(c4c(F)cccc4F)C3)cs2)CC1.I (stereo not drawn) [compound 26]	100	93	99				
CC(=O)NC(=Nc1cc(C)ccc1C)N1CCC(c2nc(C3=NOC(c4ccccc4)C3)cs2)CC1 (stereo not drawn) [compound 27]	99	58	4				
CNC(=Nc1cc(C)ccc1C)N1CCC(c2nc(C3=NOC(c4ccccc4)C3)cs2)CC1 (stereo not drawn) [compound 28]	95	0	43				
CCOC(=Nc1cc(C)ccc1C)N1CCC(c2nc(C3=NOC(c4ccccc4)C3)cs2)CC1 (stereo not drawn) [compound 29]	99	80	92				
Cc1ccc(C)c(N=C(N2CCOCC2)N2CCC(c3nc(C4=NOC(c5ccccc5)C4)cs3)CC2)c1 (stereo not drawn) [compound 30]	64	17	58				
Cc1ccc(C)c(N=C(N)N2CCC(c3nc(C4=NOC(c5c(F)cccc5F)C4)cs3)CC2)c1 (stereo not drawn) [compound 31]	100	97	99				
O=C(C(O)C(F)(F)F)N1CCC(c2nc(C3=NOC(c4c(F)cccc4F)C3)cs2)CC1 (stereo not drawn) [compound 53]	100	95					
CC(C)CC(O)C(=O)N1CCC(c2nc(C3=NOC(c4c(F)cccc4F)C3)cs2)CC1 (stereo not drawn) [compound 57]	100	97					
CCCCC(O)C(=O)N1CCC(c2nc(C3=NOC(c4c(F)cccc4F)C3)cs2)CC1 (stereo not drawn) [compound 58]	100	99					
CCCCCCC(O)C(=O)N1CCC(c2nc(C3=NOC(c4c(F)cccc4F)C3)cs2)CC1 (stereo not drawn) [compound 61]	100	47					
CCC(=O)C(=O)N1CCC(c2nc(C3=NOC(c4c(F)cccc4F)C3)cs2)CC1 (stereo not drawn) [compound 66]	100	99					
